Laboratory results from US10054581B1, “Inhibitors of notch signaling pathway and use thereof in treatment of cancers” (Ecole Polytechnique Federale de Lausanne (EPFL), priority 2011, dated 2018).
“Also recorded” adds a separate entry of the source.

Columns and labels:
[1] = system: Notch signalling via DL4:N2 ligand-receptor pair (Notch2); experiment: DL4:N2 coculture assay, Notch driven luciferase reporter; assay type: cell-based; details: 10 μM, 24 hours
From the text: Next Applicants investigated whether I3 could block pathway activation via other Notch receptors or is it specific to Notch1 signalling. To address this, a coculture assay was used where Notch signalling was activated via DL4:N1 or DL4:N2 ligand receptor pairs.

[2] = system: DND41-Parental cell line; experiment: Alamar blue proliferation assay, DND41-Parental; assay type: cell-based, human; details: over 5 days
Experimental: (§1) FIGS. 5A-5E show 6-(4-Tert-Butylphenoxy)Pyridin-3-Amine (I3) blocks NICD dependent growth of human cancer cells. […] Western blot analyses were carried out for Hes1 protein using Hes1 specific antibodies. […] Growth kinetics of the parental cell line was followed over 5 days using Alamar blue readout. […] This mutation renders this cell line insensitive to γ-secretase inhibitor treatment. […] The cells were treated with DMSO, γ-secretase inhibitor DAPT and I3 for 6 days. Alamar blue readout was taken at day 0, day 2, day 4 and day 6. Eight replicates were used for each treatment and time point. […] P values were calculated using Student's t.test. *=p value<0.05. ns=not significant.
(§2) Alamarblue® proliferation assays were performed to determine the growth kinetics of Notch inhibitor treated cells. […] In metabolically active and proliferating cells, resazurin is converted to resorufin due to an intrinsic reducing power of live cells and produces a red fluorescence. […]
(§3) Proliferation assays were performed by seeding 5000 cells/well in a 96 well plate. […] Alamarblue readout was taken using Tecan F500 (Tecan) multiplate reader.
(§4) 6-(4-Tert-Butylphenoxy)Pyridin-3-Amine (I3) can block NICD mediated activation of the Notch pathway (FIGS. 1A-D). […] In addition, these two cell lines were also monitored over several days for anti-proliferative effects of 6-(4-Tert-Butylphenoxy)Pyridin-3-Amine (I3) and DAPT.

[3] = system: PANC1; experiment: Alamar blue proliferation assay, PANC1; assay type: cell-based, human; details: 10 μM, 4 days
Experimental: Human T-ALL cell lines RPMI 8402 and KOPTK1, and pancreatic cancer cell line PANC1 as well as nRas driven melanoma cells were seeded in a 96 well plate and treated with 10 μM concentration of 6-(4-Tert-Butylphenoxy)Pyridin-3-Amine (I3) and DAPT for several days. Their growth inhibitory effects were compared with cells treated with equal amount of DMSO. Using Alamar blue assay, the growth kinetics of RPMI 8402 and KOPTK1 were followed for upto 6 days, while PANC1 and nRas melanoma cells were monitored for 4 days. 6-(4-Tert-Butylphenoxy)Pyridin-3-Amine (I3) treatment of RPMI 8402, KOPTK1. […] Statistical analyses were done using student's t.test. *=p value<0.05. ns=not significant.
(§5) Alamarblue® proliferation assays were performed to determine the growth kinetics of Notch inhibitor treated cells. Alamar Blue® consists of a cell permeable substrate resazurin. In metabolically active and proliferating cells, resazurin is converted to resorufin due to an intrinsic reducing power of live cells and produces a red fluorescence. Therefore production of resorufin serves as an indicator of the viability of the cell population.
Proliferation assays were performed by seeding 5000 cells/well in a 96 well plate. Cells were treated with DMSO or Notch inhibitors for different time intervals. […] Alamarblue readout was taken using Tecan F500 (Tecan) multiplate reader. […]

[4] = system: C2C12 myoblasts; experiment: C2C12 myoblast differentiation assay; assay type: cell-based; details: growth medium (10% serum), 3 days
Experimental: C2C12 cells were grown on collagen-coated cover slip in the presence of growth media (10% serum). To induce myoblast differentiation, cells were grown to 100% confluency for 3 days in the presence of differentiation media (2% horse serum) or in the presence of growth media+Notch inhibitors. After 3 days, cells were washed with 1× ice-cold PBS and fixed with 4% PFA. Immunofluorescence staining was performed using anti-MHC antibody as explained in the section 2.2.6 (Immunofluorescence staining).
To further confirm the Notch inhibitory potential of 6-(4-Tert-Butylphenoxy)Pyridin-3-Amine (I3) in different systems, C2C12 myoblast differentiation was used as a functional assay. The Notch pathway activation in C2C12 myoblasts retains them in an undifferentiated state, while abrogation of Notch signalling induces their differentiation. C2C12 myoblasts were treated with DMSO, 6-(4-Tert-Butylphenoxy)Pyridin-3-Amine (I3) and DAPT and grown to 100% confluency for 3 days. After three days, cells were fixed and stained with antibodies against Myosin Heavy Chain (MHC) protein. Cell nuclei were counterstained with DAPI.

[5] = system: DND41-NICD cells; experiment: Alamar blue proliferation assay, DND41-NICD; assay type: cell-based, human; details: over 5 days
Experimental: as §1, §2, §3, §4

[6] = system: Notch1-intracellular domain (NICD) mediated Notch signalling; experiment: NICD transfected HeLa cells, 12×CSL luciferase reporter; assay type: cell-based; details: HeLa cells transfected with NICD; I3 2-40 μM, DAPT 5-40 μM
From the text: To measure the Notch signalling activation, CSL/RBP-jk consensus DNA binding sequences were cloned in a head to tail conformation in the pGL4 luciferase vector (Promega), thus named 12×CSL/RBP-jjk luciferase vector. In order to determine the Notch pathway activation in chemical compound screening assay, 12×CSL/RBP-jk consensus DNA binding sequences were cloned into pGL4.26.luciferase vector (Promega). As an internal control for transfection efficiency, SV40 Renilla vector was used (Promega).
NICD-GFP overexpression studies were performed using pEGFP-C1-NICD expression plasmid. The FLAG-CMV2 plasmid expressing MAML1-FLAG was a kind gift from Dr. Lizi Wu, Harvard Medical School, Boston.
The transfected cells were treated with an increasing concentration of I3 and DAPT.

[7] = system: Notch-independent RAJI cells; experiment: Alamar blue proliferation assay, RAJI; assay type: cell-based; details: control line with no known Notch mutations
Experimental: as §5
Proliferation assays were performed by seeding 5000 cells/well in a 96 well plate. Cells were treated with DMSO or Notch inhibitors for different time intervals. Each treatment for every time interval was carried out in 8 replicates. To determine the growth kinetics, 10 μl of Alamar Blue® (Invitrogen) was added to each well and incubated for 4 hours. Alamarblue readout was taken using Tecan F500 (Tecan) multiplate reader.
As treatment of the human T-ALL cell lines and PANC1 pancreatic cancer cell line with 6-(4-Tert-Butylphenoxy)Pyridin-3-Amine (I3) induced a downregulation of Notch signalling, Applicants questioned whether this inhibition of the pathway translates into growth arrest in cancer cells. To this end, RPMI 8402, KOPTK1, PANC1 and nRas driven melanoma cell lines were grown in the presence or absence of 6-(4-Tert-Butylphenoxy)Pyridin-3-Amine (I3) for several days and their proliferative index was measured using the Alamar blue assay. […]

C[C@H](NC(=O)Cc1cc(F)cc(F)c1)C(=O)N[C@H](C(=O)OC(C)(C)C)c1ccccc1 [DAPT, N—[N-(3,5-difluorophenacetyl-Lalanyl)]-(S)-phenylglycine t-butyl ester, reference compound]
DL4:N2 (Notch2) driven pathway activation [1]: block Notch1 and Notch2 induced pathway activation
proliferation (Alamar blue) [2]: caused a significant proliferative block; also recorded: caused a proliferation arrest
proliferation (Alamar blue) [3]: induced a significant proliferation block
differentiation into MHC positive myotubes [4]: started to differentiate into multinucleated MHC positive myotubes
proliferation (Alamar blue) [5]: did not have a significant impact on their proliferation
NICD mediated Notch signalling activation [6]: had no effect on the signalling activation; also recorded: had no effect on Notch signalling activation mediated by NICD
proliferation [7]: neither DAPT nor 6-(4-Tert-Butylphenoxy)Pyridin-3-Amine (I3) had any effect on the proliferation

CC(C)(C)c1ccc(Oc2ccc(N)cn2)cc1 [I3, 6-(4-Tert-Butylphenoxy)Pyridin-3-Amine]
DL4:N2 (Notch2) driven pathway activation [1]: caused an inhibition of Notch signalling via both DL4:N1 and DL4:N2 ligand-receptor pairs; also recorded: block Notch1 and Notch2 induced pathway activation
proliferation (Alamar blue) [2]: caused a significant proliferative block; also recorded: caused a proliferation arrest
proliferation (Alamar blue) [3]: induced a significant proliferation block; also recorded: caused a significant reduction in their growth potential
differentiation into MHC positive myotubes [4]: started to differentiate into multinucleated MHC positive myotubes; also recorded: can induce differentiation of C2C12 cells into MHC expressing multinucleated myotubes
proliferation (Alamar blue) [5]: induced a proliferation arrest; also recorded: able to block proliferation of NICD overexpressing leukemic cell lines which are resistant to DAPT
NICD mediated Notch signalling activation [6]: could block pathway activation in a dose-dependent manner; also recorded: could also block pathway activation by Notch1-intracellular domain (NICD) and Notch2-intracellular domain (N2-ICD); also recorded: led to an attenuation of the signalling; also recorded: inhibits pathway activation via intracellular domains of Notch1 (NICD) and Notch2 (N2-ICD); also recorded: found to block NICD mediated pathway activation
proliferation [7]: neither DAPT nor 6-(4-Tert-Butylphenoxy)Pyridin-3-Amine (I3) had any effect on the proliferation
